# Reference: patent publication US12043652B2, “Engineered extracellular receptor constructs and uses thereof” (TRUSTEES OF BOSTON UNIVERSITY, priority 2020, dated 2024)
# Entries after “also recorded” stand apart in the source; their conditions may differ.
# Experiments:
# Assay type in all cases: cell-based
# [1] = test system: BCL-xL-BH3(G22)-Gal4-VP64 sensor; assay: BCL-xL-BH3(G22)-Gal4-VP64 sensor: ICD driven H2B-mCherry reporter expression
# Protocol: FIG. 3 Activity of BCL-xL-BH3(G22)-Gal4-VP64 upon presence of BCL-xL inhibitors. BCL-xL serves as a ligand binding domain and BH3(G22) serves as an intramolecular peptide. […] H2B mCherry expression is visualized via microscopy. A fluorescent transfection marker is also shown to verify the presence of cells as a smaller corresponding image. Images were taken 48 hours after transfection and drug addition. Scale bar 50 μm.
# (§1) Upon addition of inducer and either gamma secretase inhibitor, H2B-mCherry signal is ablated. Images are taken 24 hours after transfection and drug addition. A fluorescent transfection marker is shown as a smaller corresponding image. […] Scale bar 50 μm.
# The inventors next applied this methodology to a completely different LBD and peptide pair, BCL-xL and the BH3(G22) peptide, while keeping the ICD the same.
# [2] = test system: γ-secretase; assay: Gamma secretase dependence of two sensors (H2B-mCherry reporter with inducer plus gamma secretase inhibitor); details: dNS3-(EDVVCC) and BCL-xL-BH3(G22) sensors, inducer grazoprevir 3 μM or ABT-737 3 μM, DAPT 5 μM, Compound E 1 μM, 24 hours
# Protocol: FIG. 4 Gamma secretase dependence of two distinct sensors. dNS3-(EDVVCC (SEQ ID NO: 57))-TMD-Gal4-VP64 and BCL-xL-BH3(G22)-TMD-Gal4-VP64 sensors were tested for gamma secretase dependence via the addition of gamma secretase inhibitors DAPT and Compound E (Cpd E). […] Upon addition of inducer and either gamma secretase inhibitor, H2B-mCherry signal is ablated. Images are taken 24 hours after transfection and drug addition. A fluorescent transfection marker is shown as a smaller corresponding image. Drug concentrations are as follows: NS3 inducer, grazoprevir 3 μM; BCL-xL inducer, ABT-737 3 μM; DAPT 5 μM; Compound E 1 μM. Scale bar 50 μm.
# To probe into the mechanism of activation for the antiviral drug sensors and ABT-737 sensor, the inventors next inhibited γ-secretase with selective inhibitors, DAPT and compound E. Upon inhibition with either of these compounds, ICD driven activation of H2B-mCherry was inhibited (FIG. 4). Inhibition also occurred despite the presence of each associated sensor inducer, indicating γ-secretase plays a crucial role in MIMOsensor activation and is required for ICD release.
# [3] = molecular target: T1, catalytically inactive NS3 protease (NS3^S139A, dNS3) sensor (Hepatitis C virus genotype 1a, UniProt P27958, S1165A); details: drug grazoprevir; histograms of H2B-mCherry, flow cytometry, 48 hours post-drug addition
# T1 construct: transmembrane domain with γ-secretase cleavage site (TMD) (internal); Gal4-VP64 intracellular domain (C); expressed in transfected cells
# T1 sequence (P27958 1027-1208 S1165A): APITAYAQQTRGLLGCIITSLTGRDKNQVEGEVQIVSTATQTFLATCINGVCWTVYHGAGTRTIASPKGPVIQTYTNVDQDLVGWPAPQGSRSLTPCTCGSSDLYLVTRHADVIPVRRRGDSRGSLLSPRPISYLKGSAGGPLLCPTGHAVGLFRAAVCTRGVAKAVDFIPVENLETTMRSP
# Protocol: FIGS. 2A-2B. (FIG. 2A) Schematic of antiviral drug sensor which is designed to sense Hepatitis C Virus NS3 inhibitors. (FIG. 2B) Two sensors with varying sensitivity to antiviral drug based on the affinity of their intramolecular peptide. Activity of the sensor is shown as histograms of intracellular domain driven H2B-mCherry expression in clonal cell lines, measured by flow cytometry, 48 hours post-drug addition. […] Red arrows are drawn to highlight differences in sensitivity to ligand. Drug is grazoprevir or delivery vehicle control, DMSO.
# as §1
# For proof of concept, the ICD chosen was a synthetic transcription factor, Gal4-VP64, which activates UAS promoter driven H2B-mCherry gene expression. […] The substitution of the high affinity peptide for low affinity peptide appears to increase the sensitivity of the sensor, consistent with the theory of competitive displacement kinetics.
Compound,ICD driven activation of H2B-mCherry in presence of sensor inducer [2],"sensitivity of the sensor to antiviral drug, by intramolecular peptide [3]",further results
CN(C)CC[C@H](CSc1ccccc1)Nc1ccc(S(=O)(=O)NC(=O)c2ccc(N3CCN(Cc4ccccc4-c4ccc(Cl)cc4)CC3)cc2)cc1[N+](=O)[O-] [ABT-737],–,–,"ICD driven H2B-mCherry expression ([1]; BCL-xL-BH3(G22)-TMD-Gal4-VP64 sensor, ABT-737 3 μM, images 24 hours after transfection and drug addition): activates ICD driven H2B-mCherry expression; activation of H2B-mCherry (sensor response to drug) ([1]; microscopy, 48 hours after transfection and drug addition): concentration dependent activation"
C[C@H](NC(=O)Cc1cc(F)cc(F)c1)C(=O)N[C@H]1N=C(c2ccccc2)c2ccccc2N(C)C1=O [Compound E],ablated,–,ICD driven activation of H2B-mCherry in presence of sensor inducer ([2]; listed as compound E): inhibited
C[C@H](NC(=O)Cc1cc(F)cc(F)c1)C(=O)N[C@H](C(=O)OC(C)(C)C)c1ccccc1 [DAPT],inhibited; also recorded: ablated,–,–
DEEMEEC,–,high sensitivity,–
GELDELVYLLDGPGYDPIHS [CP5-46A-4D5E],–,intermediate sensitivity,–
